From patent publication US12590093B2, “Indolo[2′,3′:3,4]pyrido[2,1-b]quinazoline compound and use thereof” (INSTITUTE OF MEDICINAL BIOTECHNOLOGY CHINESE ACADEMY OF …, priority 2019, dated 2026) come the findings set out here.

Molecules are shown by their SMILES.

One assay deals with T1, PPARδ (Homo sapiens, UniProt Q03181).
T1 construct: expressed in transfected cells; host or cells: HepG2
T1 sequence (Q03181 211-439 limits assumed): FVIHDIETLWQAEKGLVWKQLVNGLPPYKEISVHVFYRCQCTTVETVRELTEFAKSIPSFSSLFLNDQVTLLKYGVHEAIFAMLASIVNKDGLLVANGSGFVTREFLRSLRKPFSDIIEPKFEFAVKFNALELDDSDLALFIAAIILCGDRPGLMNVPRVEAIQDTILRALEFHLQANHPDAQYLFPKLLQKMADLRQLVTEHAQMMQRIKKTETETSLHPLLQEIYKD
Nature of the assay: Nuclear receptor reporter gene transient transfection (pBIND-hPPARs-LBD) in HepG2 cells, PPARδ. Format: cell-based. As to conditions: FIG. 2, result in words. Here is the method: (§1) HepG2 cells in logarithmic growth phase were digested, seeded into the white/clear 96-well plate at a density of 5×10^4 cells/well/100 μL until the cells grew to about 90% confluence and in good condition. 0.5 μL liposome (Lipofectamine® 2000) diluted with blank medium to 25 μL per well and incubated at room temperature for 5 min. The corresponding plasmids DNA (nuclear receptor plasmid:Gal4=1:10) were diluted in blank DMEM medium to 25 μL/well (mixing of two plasmids), then mixed evenly with the diluted liposome, and incubated for 20 min at 37° C. The DNA-liposome complex (50 μL per well) was added with the DMEM complete medium (100 μL per well) and mixed thoroughly to obtain a DNA-liposome complex cell culture. The cell medium was discarded, and replaced with the DNA-liposome complex cell culture (150 μL/well) (37° C., 5% CO2). After 6 h, the DNA-liposome complex cell culture medium was discarded, and 200 μL serum-free DMEM medium containing the compound at an appropriate concentration was added to each test well, and cultured for 18-24 h. The cell Luciferase activity was measured by the method as described in the Luciferase Assay System.
A general note: A reporter such as luciferase makes a cellular process visible.

Assay [1] relates to ABCA1. In words: ABCA1 up-regulation, luciferase reporter in ABCA1P-LUC HepG2 cells. The class given is cell-based. The note with it: co-incubated with MK886, GW9662, GSK3787 or GGPP.
The subject of assay [2] is ABCA1. In words: ABCA1 protein expression in liver of ApoE−/− mice. As to conditions: FIG. 10. Format: in vivo. The procedure: (§2) 6-week-old male C57/BL6 ApoE^−/− mice were fed on normal chaw diet for one week. The mice were randomly divided into three groups (control group, high-fat diet model group, and treatment group, 12 mice per group) according to the body weight. From 7-week-old, the high-fat diet model group and the treatment group were fed on a high fat diet (HFD) (0.15% cholesterol and 20% fat), and the control group was fed on normal chow diet. The treatment group (R3) mice were administered intragastrically with TR3 (5 mg/kg). The control group and the high-fat diet model group mice were intragastrically administered with sodium carboxymethylcellulose (CMC-Na) solution. After 12 weeks of administration, all mice were fasted overnight. The blood sample was taken from the retro-orbital plexus, collected in a EP tube, and then centrifuged for 15 min (2500 rpm). The centrifuged serum (upper layer) was transferred to new EP tubes (divided into two aliquots) and stored at −20° C. for further use. […]
(§3) When animal tissues were used to prepare protein samples, the tissues were firstly homogenized and lysed in the RIPA lysis buffer. […] When cell supernatants were used to prepare protein samples, the supernatants were freeze-dried, needed to be extracted using a protein recovery kit (Applygen, Beijing, China), and then analyzed by western-blot.

The next assay concerns the target T2, PPARα (Homo sapiens, UniProt Q07869).
T2 construct: expressed in transfected cells; host or cells: HepG2
T2 sequence (Q07869 239-466 limits assumed): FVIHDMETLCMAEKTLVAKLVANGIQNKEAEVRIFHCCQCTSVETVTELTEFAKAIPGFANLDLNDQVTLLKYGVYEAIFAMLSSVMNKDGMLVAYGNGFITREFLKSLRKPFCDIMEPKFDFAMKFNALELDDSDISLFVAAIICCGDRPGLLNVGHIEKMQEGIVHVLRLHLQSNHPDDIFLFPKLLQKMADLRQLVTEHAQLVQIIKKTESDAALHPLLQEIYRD
Nature of the assay: Nuclear receptor reporter gene transient transfection (pBIND-hPPARs-LBD) in HepG2 cells, PPARα. Format: cell-based. The note with it: FIG. 2, result in words. The procedure: as §1

The subject of assay [3] is ABCA1. Nature of the assay: ABCA1 expression in RAW 264.7 cells by western-blot, with or without si-AMPK. The class given is cell-based, Murine. Here is the method: Murine macrophages RAW 264.7 cells were subcultured about every 48 h. When the cells were approximately 100% confluent, the old culture medium was removed, and the cells were washed with PBS and digested with trypsin at an appropriate amount for about 2 min at RT. After the digestion solution was removed, the RPMI-1640 complete medium containing 10% FBS was added immediately to inhibit the activity of trypsin. The cells in the culture flask were repeatedly and gently blown with a curved straw, so that they were completely detached from the bottom of the flask and dispersed into the single-cell suspension. The cells were seeded into a new cell flask at a density of 1:4-1:6, and added with an appropriate amount of the complete medium. The flask was placed in an incubator and cultured at 37° C., 5% CO2. RAW264.7 cells were pretreated with si-AMPK (AMPK siRNA) for 24 h, and then treated with compound TR3 (1 μM) for 24 h. The expression of ABCA1 and AMPK was detected by western-blot.
The effect of TR3 on AMPK was detected by western-blot.

In another assay the test system is SR-BI. Nature of the assay: SR-BI protein expression in liver of ApoE−/− mice. The note with it: FIG. 10. Format: in vivo. Here is the method:
as §2, §3

On to `c1ccc2c(c1)CN1CCc3c([nH]c4ccccc34)C1=N2` [TR3, 5,7,8,13-tetrahydroindolo[2′,3′:3,4]pyrido[2,1-b]quinazoline], for which, on PPARδ, the “activation of PPARδ” value was “simultaneously activated PPARα/γ/δ and LXRα/β to a certain extent”. Besides, the “up-regulating transcription activity of ABCA1 when co-incubated with nuclear receptor inhibitor” value in the assay with ABCA1 [1] was “significantly inhibited”. In the assay on ABCA1 [2], the “expression of ABCA1 in the liver” value is “increased”. In addition, the “activation of PPARα” value at PPARα is “simultaneously activated PPARα/γ/δ and LXRα/β to a certain extent”. Also, the “up-regulation of ABCA1 expression after addition of si-AMPK” value in the assay with ABCA1 [3] (RAW 264.7 cells pretreated with si-AMPK 24 h, then 1 μM for 24 h) is “inhibited by the addition of interfering RNA (si-AMPK)”. Also, the “expression of ABCA1” value in the assay with ABCA1 [3] (RAW 264.7 cells, 1 μM, western-blot, FIG. 11) was “significantly up-regulated”. Besides, in the assay on SR-BI, the “expression of SR-BI in the liver” value is “increased”.
